These are literature values, as cited in patent publication US20260335448A1 (priority 2022, published 2026).

Read-outs that look alike come from different tables or passages of the source.

Series [1] concerns SARS-COV-2-infected Vero/hSLAM cells. The following applies: in vitro, at high concentrations.
In the next series the test system is ovarian cancer. The conditions noted are these: in vitro.
The next series relates to West Nile virus. The following applies: in vitro.
The test system of another series is leukemia. The following applies: in vitro.
A further series concerns dengue virus. The conditions noted are these: in vitro.
A further series concerns melanoma. The conditions noted are these: in vitro.
A further series relates to colon cancer. The conditions noted are these: in vitro.
Series [2] deals with Venezuelan equine encephalitis virus.
The test system of a further series is glioblastoma. The following applies: in vitro.
The test system of series [3] is pseudorabies virus. The conditions noted are these: in vivo.
Series [4] has as its system pseudorabies virus.
The subject of another series is breast cancer. The following applies: in vitro.
In another series the test system is gastric cancer. The following applies: in vitro.

As for ivermectin, the anti-viral activity entry in [1] is “activity in vitro”; in the series with West Nile virus, “activity in vitro”; with dengue virus it was “activity in vitro”; in [2], “activity in vitro”; with pseudorabies virus [3], “activity in vitro and in vivo”; in the series with pseudorabies virus [4], “activity in vitro”. Also, the anti-tumor activity result with ovarian cancer, in the series with leukemia, in the series on melanoma, with colon cancer, in the series on glioblastoma and with breast cancer was “activity in vitro” throughout. In the series with gastric cancer, the anti-tumor activity entry is on record as “activity in vitro”.
